Assay results reported in patent US10363239B2, “Method for inhibiting growth of cancer cells” (Pain Therapeutics, Inc., priority 2013, dated 2019).
Read-outs that look alike come from different tables or passages of the source.

Key:
[1] = target: FLNA pentapeptide of SEQ ID NO: 1 (Bn-VAKGL) (Homo sapiens, UniProt P21333); assay: FITC-NLX-based FLNA screening assay (inhibition of FITC-naloxone binding to Bn-VAKGL on streptavidin plates); details: 10 nM FITC-NLX
[2] = test system: mu opiate receptor (MOR); assay: MOR agonist activity using [35S]GTPγS binding assay in striatal membranes; format: biochemical; details: for MOR agonist activity ([35S]GTPγS binding), FLNA-Binding Compound as Agonist 0.1 μM: 0.1 μM compound; for % DAMGO (0.1 μM): 0.1 μM compound relative to DAMGO; for MOR agonist activity ([35S]GTPγS binding), FLNA-Binding Compound as Agonist 1 μM: 1 μM compound; for MOR agonist activity ([35S]GTPγS binding), FLNA-Binding Compound as Agonist 1 μM + BFNA: 1 μM compound + 1 μM β-funaltrexamine; for % DAMGO + BFNA: 1 μM compound + BFNA relative to DAMGO + BFNA; for % DAMGO (1 μM): 1 μM compound relative to DAMGO
Protocol: To assess the mu opiate receptor (MOR) agonist activity of positive compounds from the FLNA screening, compounds were tested in a [^35S]GTPγS binding assay using striatal membranes. […] This assay measures a functional consequence of receptor occupancy at one of the earliest receptor-mediated events. The assay permits traditional pharmacological parameters of potency, efficacy and antagonist affinity, with the advantage that agonist measures are not subjected to amplification or other modulation that may occur when analyzing parameters further downstream of the receptor.
Thus, striatal tissue was homogenized in 10 volumes of ice cold 25 mM HEPES buffer, pH 7.4, which contained 1 mM EGTA, 100 mM sucrose, 50 μg/ml leupeptin, 0.04 mM PMSF, 2 μg/ml soybean trypsin inhibitor and 0.2% 2-mercaptoethanol. The homogenates were centrifuged at 800×g for 5 minutes and the supernatants were centrifuged at 49,000×g for 20 minutes. The resulting pellets were suspended in 10 volume of reaction buffer, which contained 25 mM HEPES, pH 7.5, 100 mM NaCl, 50 μg/ml leupeptin, 2 μg/ml soybean trypsin inhibitor, 0.04 mM PMSF and 0.02% […].
The resultant striatal membrane preparation (200 μg) was admixed and maintained (incubated) at 30° C. for 5 minutes in reaction buffer as above that additionally contained 1 mM MgCl2 and 0.5 nM [^35S]GTPγS (0.1 μCi/assay, PerkinElmer Life and Analytical Sciences) in a total volume of 250 μl and continued for 5 minutes in the absence or presence of 0.1-10 μM of an assayed compound of interest. The reaction was terminated by dilution with 750 μl of ice-cold reaction buffer that contained 20 mM MgCl2 and 1 mM EGTA and immediate centrifugation at 16,000×g for 5 minutes.
The resulting pellet was solubilized by sonicating for 10 seconds in 0.5 ml of immunoprecipitation buffer containing 0.5% digitonin, 0.2% sodium cholate and 0.5% NP-40. Normal rabbit serum (1 μl) was added to 1 ml of lysate and incubated at 25° C. for 30 minutes. Nonspecific immune complexes were removed by incubation with 25 μl of protein A/G-conjugated agarose beads at 25° C. for 30 minutes followed by centrifugation at 5,000×g at 4° C. for 5 minutes. The supernatant was divided and separately incubated at 25° C. for 30 minutes with antibodies raised against Gαo proteins (1:1,000 dilutions).
The immunocomplexes so formed were collected by incubation at 25° C. for 30 minutes with 40 μl of agarose-conjugated protein A/G beads and centrifugation at 5,000×g at 4° C. for 5 minutes. The pellet was washed and suspended in buffer containing 50 mM Tris-HCl, pH 8.0, and 1% NP-40. The radioactivity in the suspension was determined by liquid scintillation spectrometry.

[3] = read-out: Percent Binding Inhibition, FLNA-binding compound 0.01 μM
[4] = read-out: Percent Binding Inhibition, FLNA-binding compound 0.1 μM
[5] = read-out: Percent Binding Inhibition, FLNA-binding compound 1 μM
[6] = FLNA-binding compound 0.01 μM, read-out: Percent Binding Inhibition
[7] = FLNA-binding compound 0.1 μM, read-out: Percent Binding Inhibition
[8] = FLNA-binding compound 1 μM, read-out: Percent Binding Inhibition

SMILES | inhibition at 0.01 µM [1, 3] [%] | inhibition at 0.1 µM [1, 4] [%] | inhibition at 1 µM [1, 5] [%] | MOR agonist activity ([35S]GTPγS binding), FLNA-Binding Compound as Agonist 0.1 μM [2] [%] | % DAMGO (0.1 μM) [2] [%] | MOR agonist activity ([35S]GTPγS binding), FLNA-Binding Compound as Agonist 1 μM [2] [%] | MOR agonist activity ([35S]GTPγS binding), FLNA-Binding Compound as Agonist 1 μM + BFNA [2] [%] | % DAMGO + BFNA [2] [%] | % DAMGO (1 μM) [2] [%] | inhibition at 0.01 µM [1, 6] [%] | inhibition at 0.1 µM [1, 7] [%] | inhibition at 1 µM [1, 8] [%]
CC1CCC(C(C)C)C(OCC(O)CN2CCSCC2)C1 (stereo not drawn) [Compound A0003] | 21.3 | 31.6 | 37.4 | 176.8 | 118.3 | 276.0 | 17.1 | 64.5 | 119.9 |  |  | 
CC1CCC(C(C)C)C(OCC(O)CN2CCOCC2)C1 (stereo not drawn) [Compound A0004] |  |  |  | 97.4 | 55.2 | 144.2 | 86.0 | 130.9 | 55.6 | 40 | 43.7 | 47.6
CC1CCC(C(C)C)C(OCC(O)CN2CCCCC2)C1 (stereo not drawn) [Compound A0005] | 34.2 | 38.2 | 43.8 | 179.7 | 105.0 | 239.2 | 23.5 | 45.1 | 89.6 |  |  | 
CC1CCN(CC(O)COC2CC(C)CCC2C(C)C)CC1 (stereo not drawn) [Compound A0006] |  |  |  | 170.0 | 113.8 | 190.9 | 18.2 | 68.7 | 82.9 | 37.9 | 43.5 | 47.5
CC1CCC(C(C)C)C(OCC(O)CN2CCCCC2C)C1 (stereo not drawn) [Compound A0007] | 39.2 | 46.2 | 52.9 | 102.0 | 68.3 | 221.9 | 40.4 | 152.5 | 96.4 |  |  | 
CC1CCC(C(C)C)C(OCC(O)CN2CC(C)CC(C)C2)C1 (stereo not drawn) [Compound A0008] |  |  |  | 163.8 | 109.6 | 235.0 | 133.9 | 505.3 | 102.1 | 34.5 | 33.5 | 39.8
CC1CCC(C(C)C)C(OCC(O)CN2CCN(C)CC2)C1 (stereo not drawn) [Compound A0009] |  |  |  | 70.2 | 39.8 | 126.4 | 93.9 | 142.9 | 48.7 | 26.4 | 37.8 | 38.9
CC1CCC(C(C)C)C(OCC(O)CN2CCCN(C)CC2)C1 (stereo not drawn) [Compound A0010] |  |  |  | 277.2 | 161.9 | 319.0 | 190.3 | 365.3 | 119.5 | 36 | 36.5 | 39
CC1CCC(C(C)C)C(OCC(O)CN2CCN(CCN3CCOCC3)CC2)C1 (stereo not drawn) [Compound A0011] |  |  |  | 236.3 | 158.2 | 287.5 | 47.0 | 177.4 | 124.9 | 45.7 | 51.1 | 52.8
COc1ccc(N2CCN(CC(O)COC3CC(C)CCC3C(C)C)CC2)c(OC)c1 (stereo not drawn) [Compound A0012] | 39.7 | 49.6 | 54.4 | 149.3 | 99.9 | 185.7 | 122.4 | 461.9 | 80.7 |  |  | 
CC1CCC(C(C)C)C(OCC(O)CN2CCCCCC2)C1 (stereo not drawn) [Compound A0013] |  |  |  | 102.1 | 57.8 | 164.8 | 86.1 | 131.1 | 63.6 | 30.2 | 40.2 | 47.7
CC1CCC(C(C)C)C(OCC(O)CN2CCCCCCC2)C1 (stereo not drawn) [Compound A0014] |  |  |  | 147.0 | 83.2 | 174.9 | 140.8 | 214.3 | 67.5 | 33.8 | 39.7 | 44.7
CC1CCC(C(C)C)C(OCC(O)CN2CCC2)C1 (stereo not drawn) [Compound A0015] | 36.3 | 46.8 | 55 | 110.9 | 64.8 | 150.1 | 62.5 | 120.0 | 56.2 |  |  | 
